Format in all cases: cell-based
Experiment [1] deals with HCC827-SVD cells (human EGFR exon 20 insertion mutant D770_N771insSVD). Kind of experiment: Cell growth inhibition (CellTiter-Glo), HCC827-SVD. Particulars: 72 h, 3 days. Summed up: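 Growth read by CellTiter-Glo luminescence after 3-day compound exposure at 37 °C. Engineered clonal HCC827 line (native EGFR deleted by CRISPR, mutant EGFR re-expressed) plated at 5000 cells/well in 10% FBS RPMI the night before dosing.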
On the technique in general: ATP-based viability assays read luminescence as a measure of living cells.

For the next experiment, the system named is HCC827 cells. Kind of experiment: Cell growth inhibition (CellTiter-Glo), HCC827. Particulars: Homo sapiens, 72 h, 3 days. How it is done:
(§1) 2. Cell Growth Inhibition for HCC827, HCC827-SVD, HCC827-ASV, HCC827-YVMA, and A431.
(§2) HCC827(ATCC), HCC827-SVD, HCC827-ASV, and HCC827-YVMA cells were seeded in 96-well plates at 5000 cells/well in 90 μL of RPMI growth medium containing 10% FBS and 1% Penicillin Streptomycin. A431 (ATCC) cells were seeded in 96-well plates at 5000 cells/well in 90 μL of DMEM growth medium containing 10% FBS and 1% Penicillin Streptomycin. Cells were incubated at 37° C. overnight and then administered with 10 μL 10× test compounds prepared in the growth medium at various concentrations. After administration of the compounds, cells were incubated at 37° C. for 3 days. Before the CellTiter-Glo assay, the plates were equilibrated at room temperature for approximately 30 minutes. 100 ul of CellTiter-Glo reagent (Promega) was added to each well. The plates were then incubated at room temperature for 10 minutes and luminescence was recorded by the EnSight® multimode plate reader (PerkinElmer). Table 7 listed selected compounds in cellular growth assay.

The subject of another experiment is A431 cells. Kind of experiment: Cell growth inhibition (CellTiter-Glo), A431. Particulars: Homo sapiens, A-431, 72 h, 3 days. As for the experimental part: as §1, §2
The subject of experiment [2] is HCC827-YVMA cells (human ERBB2 exon20 insertion mutant A775_G776ins YVMA). In words: Cell growth inhibition (CellTiter-Glo), HCC827-YVMA. The conditions noted are these: 72 h, HCC827-YVMA cells, 3 days, CellTiter-Glo, read-out: Cell growth inhibition, GI50 (nM) HCC827-YVMA. Summed up: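 Growth in RPMI with 10% FBS was measured by CellTiter-Glo luminescence after 3 days at 37 °C with test compounds across a concentration range. The single-clone HCC827 lines carry a lentiviral YVMA (ERBB2) or ASV (EGFR) exon 20 insertion, with endogenous EGFR removed via sgRNA/Cas9.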

SMILES strings stand for the structures.

As to `C=CC(=O)N1CCC(c2c[nH]c3ncnc(Nc4ccc(Oc5ccnc(N6CCOC(C)C6)c5)cc4F)c23)CC1` (stereo in doubt) [Compound 141, (S)-1-(4-(4-((2-fluoro-4-((2-(2-methylmorpholino)pyridin-4-yl)oxy)phenyl)amino)-7H-pyrrolo[2,3-d]pyrimidin-5-yl)piperidin-1-yl)prop-2-en-1-one], the GI50 is 50 to 200 nM in experiment [1], above 1000 nM with HCC827 cells, above 1000 nM in the experiment with A431 cells and 50 to 200 nM in experiment [2].
Regarding `C=CC(=O)N1CCC(c2c[nH]c3ncnc(Nc4ccc(OCc5cc(C)ccn5)c(Cl)c4)c23)CC1` [Compound 110, 1-(4-(4-((3-chloro-4-((4-methylpyridin-2-yl)methoxy)phenyl)amino)-7H-pyrrolo[2,3-d]pyrimidin-5-yl)piperidin-1-yl)prop-2-en-1-one], the GI50 in experiment [1] is below 50 nM; in the experiment on HCC827 cells, below 50 nM; in the experiment with A431 cells it was 200 to 1000 nM; in experiment [2] it was below 50 nM.
Regarding `C=CC(=O)N1CCC(c2c[nH]c3ncnc(Nc4ccc(OCc5ccccn5)c(F)c4)c23)CC1` [Compound 111, 1-(4-(4-((3-fluoro-4-(pyridin-2-ylmethoxy)phenyl)amino)-7H-pyrrolo[2,3-d]pyrimidin-5-yl)piperidin-1-yl)prop-2-en-1-one], the GI50 in experiment [1] was below 50 nM; in the experiment with HCC827 cells, below 50 nM; in the experiment on A431 cells it was 50 to 200 nM; in experiment [2] it was below 50 nM.
In the case of `C=CC(=O)N1CCC(c2c[nH]c3ncnc(Nc4ccc(OCc5cc(C(F)(F)F)ccn5)c(Cl)c4)c23)CC1` [Compound 113, 1-(4-(4-((3-chloro-4-((4-(trifluoromethyl)pyridin-2-yl)methoxy)phenyl)amino)-7H-pyrrolo[2,3-d]pyrimidin-5-yl)piperidin-1-yl)prop-2-en-1-one], the GI50 (in experiment [1]; with HCC827 cells; with A431 cells; in experiment [2]) was below 50 nM each time.
On to `C=CC(=O)N1CCC(c2c[nH]c3ncnc(Nc4ccc(OCc5cnccn5)c(Cl)c4)c23)CC1` [Compound 116, 1-[4-[4-[3-chloro-4-(pyrazin-2-ylmethoxy)anilino]-7H-pyrrolo[2,3-d]pyrimidin-5-yl]-1-piperidyl]prop-2-en-1-one], for which the 50% growth inhibitory concentration (GI50) in experiment [1] was below 50 nM; in the experiment with HCC827 cells, below 50 nM; with A431 cells it was 50 to 200 nM; in experiment [2], below 50 nM.
Regarding `C=CC(=O)N1CCC(c2c[nH]c3ncnc(Nc4ccc(OCc5cscn5)c(Cl)c4)c23)CC1` [Compound 119, 1-[4-[4-[3-chloro-4-(thiazol-4-ylmethoxy)anilino]-7H-pyrrolo[2,3-d]pyrimidin-5-yl]-1-piperidyl]prop-2-en-1-one], the GI50 in experiment [1] was below 50 nM; in the experiment with HCC827 cells, below 50 nM; in the experiment on A431 cells, 50 to 200 nM; in experiment [2] it was below 50 nM.
For `C=CC(=O)N1CCC(c2c[nH]c3ncnc(Nc4ccc(Oc5ccnc(N(C)C6CC(F)(F)C6)c5)cc4F)c23)CC1` [Compound 132, 1-(4-(4-((4-((2-((3,3-difluorocycloButyl)(methyl)amino)pyridin-4-yl)oxy)-2-fluorophenyl)amino)-7H-pyrrolo[2,3-d]pyrimidin-5-yl)piperidin-1-yl)prop-2-en-1-one], the GI50 in experiment [1] is 200 to 1000 nM; in the experiment on HCC827 cells, above 1000 nM; in experiment [2], 50 to 200 nM.
`C=CC(=O)N1CCC(c2c[nH]c3ncnc(Nc4ccc(Oc5ccnc(-n6ccc(C(C)C)n6)c5)cc4F)c23)CC1` [Compound 133, 1-(4-(4-((2-fluoro-4-((2-(3-isopropyl-1H-pyrazol-1-yl)pyridin-4-yl)oxy)phenyl)amino)-7H-pyrrolo[2,3-d]pyrimidin-5-yl)piperidin-1-yl)prop-2-en-1-one]: the figures for the GI50 (in experiment [1]; in the experiment with HCC827 cells; in experiment [2]) were 50 to 200 nM, above 1000 nM and 50 to 200 nM, respectively.
As to `C=CC(=O)N1CC(c2c[nH]c3ncnc(Nc4ccc(OCc5ccccn5)c(Cl)c4)c23)C1` [Compound 137, 1-(3-(4-((3-chloro-4-(pyridin-2-ylmethoxy)phenyl)amino)-7H-pyrrolo[2,3-d]pyrimidin-5-yl)azetidin-1-yl)prop-2-en-1-one], the GI50 in experiment [1] is below 50 nM; with HCC827 cells, 50 to 200 nM; in the experiment on A431 cells, above 1000 nM; in experiment [2], below 50 nM.
Regarding `C=CC(=O)N1CCC(c2c[nH]c3ncnc(Nc4ccc(Oc5ccc(-c6cc(C)[nH]c(=O)c6)cc5)c(Cl)c4F)c23)CC1` [Compound 138, 4-(4-(4-((5-(1-acryloylpiperidin-4-yl)-7H-pyrrolo[2,3-d]pyrimidin-4-yl)amino)-2-chloro-3-fluorophenoxy)phenyl)-6-methylpyridin-2(1H)-one], the GI50 in experiment [1] was 50 to 200 nM; in the experiment on HCC827 cells it was above 1000 nM; in the experiment with A431 cells, above 1000 nM; in experiment [2], 200 to 1000 nM.
`C=CC(=O)N1CCC(c2c[nH]c3ncnc(Nc4ccc(Oc5ccn(Cc6cc(Oc7ccccc7)ccn6)n5)cc4F)c23)CC1` [Compound 151, 1-(4-(4-((2-fluoro-4-((1-((4-phenoxypyridin-2-yl)methyl)-1H-pyrazol-3-yl)oxy)phenyl)amino)-7H-pyrrolo[2,3-d]pyrimidin-5-yl)piperidin-1-yl)prop-2-en-1-one]: the 50% growth inhibitory concentration (GI50) was 200 to 1000 nM in experiment [1], above 1000 nM with HCC827 cells and 50 to 200 nM in experiment [2].
`C=CC(=O)N1CCC(c2n[nH]c3ncnc(Nc4ccc(Oc5ccc(-c6cc(-c7ccccc7)[nH]c(=O)c6)nc5)c(Cl)c4F)c23)CC1` [Compound 170, 5-(4-((3-(1-acryloylpiperidin-4-yl)-1H-pyrazolo[3,4-d]pyrimidin-4-yl)amino)-2-chloro-3-fluorophenoxy)-6′-phenyl-[2,4′-bipyridin]-2′(1′H)-one]: the GI50 in experiment [1] is 50 to 200 nM; in the experiment with HCC827 cells, 200 to 1000 nM; in experiment [2], 50 to 200 nM.
On to `C=CC(=O)N1CCC(c2n[nH]c3ncnc(Nc4ccc(Oc5nc(-c6ccc(OC)nc6)cs5)cc4F)c23)CC1` [Compound 189, 1-(4-(4-((2-fluoro-4-((4-(6-methoxypyridin-3-yl)thiazol-2-yl)oxy)phenyl)amino)-1H-pyrazolo[3,4-d]pyrimidin-3-yl)piperidin-1-yl)prop-2-en-1-one], for which the 50% growth inhibitory concentration (GI50) in experiment [1] is 200 to 1000 nM; in the experiment with HCC827 cells it was above 1000 nM; in experiment [2] it was 200 to 1000 nM.
With `C=CC(=O)N1CCC(c2n[nH]c3ncnc(Nc4ccc(Oc5ccnc(NC(=O)C6CCCC6)c5)cc4F)c23)CC1` [Compound 193, N-(4-(4-((3-(1-acryloylpiperidin-4-yl)-1H-pyrazolo[3,4-d]pyrimidin-4-yl)amino)-3-fluorophenoxy)pyridin-2-yl)cyclopentanecarboxamide], the 50% growth inhibitory concentration (GI50) is 50 to 200 nM in experiment [1], above 1000 nM in the experiment with HCC827 cells and 50 to 200 nM in experiment [2].
For `C=CC(=O)N1CCC(c2n[nH]c3ncnc(Nc4ccc(Oc5ccnc(NC(=O)C6CCOCC6)c5)cc4F)c23)CC1` [Compound 194, N-(4-(4-((3-(1-acryloylpiperidin-4-yl)-1H-pyrazolo[3,4-d]pyrimidin-4-yl)amino)-3-fluorophenoxy)pyridin-2-yl)tetrahydro-2H-pyran-4-carboxamide], the GI50 is 200 to 1000 nM in experiment [1], above 1000 nM in the experiment on HCC827 cells and 200 to 1000 nM in experiment [2].

As a reminder, the GI50 is the concentration at which growth is held to half of that of the control.

Source of the values: patent publication US20240059698A1 (Accutar Biotechnology Inc., priority 2022, published 2024).
